From publication PMC2664092 (Biochemistry, 2008) come the findings set out here.

Each structure is given as a SMILES string.

The target of the experiment is T1, LpxL (Escherichia coli, UniProt P0ACV0).
T1 sequence (P0ACV0 1-306): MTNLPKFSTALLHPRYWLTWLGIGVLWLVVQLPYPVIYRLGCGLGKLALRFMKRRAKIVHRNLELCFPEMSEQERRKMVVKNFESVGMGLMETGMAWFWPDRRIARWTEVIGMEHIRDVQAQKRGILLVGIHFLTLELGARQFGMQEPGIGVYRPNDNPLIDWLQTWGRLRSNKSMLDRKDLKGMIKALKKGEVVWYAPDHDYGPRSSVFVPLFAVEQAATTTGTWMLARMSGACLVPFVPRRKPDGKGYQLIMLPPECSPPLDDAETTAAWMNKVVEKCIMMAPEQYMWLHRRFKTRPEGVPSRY
Nature of the experiment: […] TLC acyltransferase assay, PhosphorImager. Format: biochemical. Particulars: read-out: apparent KM; 90 µM lauroyl-ACP (saturating); 0.1% Triton X-100, 0.1 mg/mL BSA, 5 mM MgCl2, 50 mM NaCl, 50 mM HEPES pH 7.5; 30 °C (standard assay); labelled compound.

What is called Km is the concentration of substrate that gives half-maximal velocity.

Regarding `CCCCCCCCCCC[C@@H](O)CC(=O)N[C@H]1[C@H](OC[C@H]2O[C@H](OP(=O)(O)O)[C@H](NC(=O)C[C@H](O)CCCCCCCCCCC)[C@@H](OC(=O)C[C@H](O)CCCCCCCCCCC)[C@@H]2O)O[C@H](CO[C@]2(C(=O)O)C[C@@H](O[C@]3(C(=O)O)C[C@@H](O)[C@@H](O)[C@@H]([C@H](O)CO)O3)[C@@H](O)[C@@H]([C@H](O)CO)O2)[C@@H](OP(=O)(O)O)[C@@H]1OC(=O)C[C@H](O)CCCCCCCCCCC` [Kdo2-lipid IVA], the Km is 15 ± 3 µM.
